# Experimental data reported in EP4772503A1, “LIPOIC ACID DERIVATIVE, VESICLE COMPOUND AND PREPARATION THEREFOR AND USE THEREOF” (Neuboron Medtech Research Institute Ltd., priority 2023, dated 2025).
# Key:
# [1] = DLS detection of grain size, PDI and zeta potential of vesicles; assay type: physicochemical; conditions: for PDI / d(nm) / zeta potential (mV): vesicles of the derivative, depolymerization and assembly repeated three times; for grain size of the vesicles: vesicles assembled once, pH below 7.2, FIG. 5
# Experimental: • ① In this test example, the grain sizes of vesicle compounds formed by three compounds, LA-PEG2-BPA, LA-PEG4-BPA, and LA-PEG4-3-BPA, were detected.
# Preparation of the vesicle nanoparticles to be detected for grain size in this test example includes: An appropriate amount of the corresponding compound was weighed and placed into a sample vial, double-distilled water was added, an appropriate amount of NaOH aqueous solution was added to adjust the pH to between 10 and 11 until the starting material was completely dissolved, followed by addition of an appropriate amount of hydrochloric acid to adjust the pH to below 7.2, thereby completing vesicle assembly.
# ② The lipoic acid derivatives were separately assembled into vesicles, including LA-PEG1-BPA (denoted as L^pB-1), LA-PEG2-BPA (denoted as L^pB-2), LA-PEG4-BPA (denoted as L^pB-3), LA-PEG8-BPA (denoted as L^pB-4), LA-PEG1-3-BPA (denoted as L^mB-1), LA-PEG2-3-BPA (denoted as L^mB-2), LA-PEG4-3-BPA (denoted as L^mB-3), and LA-PEG8-3-BPA (denoted as L^mB-4); the vesicle assembly method in this test example was based on the preparation method of the vesicle examples and depolymerization and assembly were repeatedly three times; the physicochemical properties of the self-assembled vesicles were detected, and the grain size, polymer dispersancy index (PDI), and zeta potential of the vesicles were detected using DLS (dynamic light scattering) technology. Table 1 […]
# [2] = Critical aggregation concentration by Nile Red fluorescence; assay type: physicochemical; conditions: Nile Red 1.0 µM, distilled water
# Experimental: A mixture of Nile Red (at a concentration of 1.0 µM) and the corresponding BPA lipoic acid derivative (at a concentration of 0-20 mM) in distilled water was oscillated overnight under constant temperature conditions. The fluorescence emission intensity of Nile Red at 525 nm wavelength (λex = 485 nm) was measured using a FluoroMax-4 fluorometer. The critical aggregation concentration of the BPA lipoic acid derivative in aqueous medium was calculated from the intersection point of two linear regression equations.
# The critical aggregation concentration (CAC) refers to the minimum concentration at which a substance forms aggregates in an aqueous solution. When the concentration of a surfactant or colloidal particle in an aqueous solution exceeds the critical aggregation concentration, they begin to self-assemble into aggregates due to intermolecular attractive forces. This process is referred to as aggregation or self-assembly.
SMILES,PDI [1],d(nm) [1] [nm],zeta potential (mV) [1] [mV],CAC [2] [µM],grain size of the vesicles [1]
O=C(CCCCC1CCSS1)NCCOCCOCCC(=O)NC(Cc1cccc(B(O)O)c1)C(=O)O (stereo not drawn) [L^mB-2],0.102,149.1,-28.61,254,–
O=C(CCCCC1CCSS1)NCCOCCOCCC(=O)NC(Cc1ccc(B(O)O)cc1)C(=O)O (stereo not drawn) [L^pB-2],0.015,144.7,-30.9,248,approximately 244 nm
O=C(CCCCC1CCSS1)NCCOCCC(=O)NC(Cc1cccc(B(O)O)c1)C(=O)O (stereo not drawn) [L^mB-1],0.132,105.3,-30.7,256,–
O=C(CCCCC1CCSS1)NCCOCCC(=O)NC(Cc1ccc(B(O)O)cc1)C(=O)O (stereo not drawn) [L^pB-1],0.107,98.9,-32.5,243,–
O=C(CCCCC1CCSS1)NCCOCCOCCOCCOCCC(=O)NC(Cc1cccc(B(O)O)c1)C(=O)O (stereo not drawn) [L^mB-3],0.209,165.7,-35.20,274,approximately 114 nm

# The next lines start with the values.
PDI [1],d(nm) [1] [nm],zeta potential (mV) [1] [mV],CAC [2] [µM],grain size of the vesicles [1],SMILES
0.217,268.4,-29.35,277,–,O=C(CCCCC1CCSS1)NCCOCCOCCOCCOCCOCCOCCOCCOCCC(=O)NC(Cc1ccc(B(O)O)cc1)C(=O)O (stereo not drawn) [L^pB-4]
0.237,284.6,-35.2,280,–,O=C(CCCCC1CCSS1)NCCOCCOCCOCCOCCOCCOCCOCCOCCC(=O)NC(Cc1cccc(B(O)O)c1)C(=O)O (stereo not drawn) [L^mB-4]
